Measured values: US20240376517A1 (THE UNIVERSITY COURT OF THE UNIVERSITY OF EDINBURCH, priority 2021, published 2024)
*1 amine or outer side, *2 acyl side, *3 side chain or, on linkers, in order; H or OH if unused. Where a SMILES comes first, the peptide text is derived from it. Where no end group is shown, it is not given here. [ ]: non-standard residue; d: D form. The star is where a group is joined. ξ: configuration not given here. BODIPY(FL) = CC1=CC(C)=[N+]2C1=Cc1ccc(CCC(=O)*)n1[B-]2(F)F; X1 = CN(C)c1ccc(/N=N/c2ccc(C(=O)*)cc2)cc1; Ethylenediamine = C(CN[*:2])N[*:1]; Ile(3ξ) = CCC(C)[C@H](N)C(=O)O; AMC = Cc1cc(=O)oc2cc(N*)ccc12

Assays:
[1] = test system: co-cultures of E0771 cells and IL-2-activated CD8+ T cells; test: Drug screening, image-based phenotypic screen with H5; format: cell-based, mouse; conditions: drug at working concentration plus IL-2 100 U mL^−1, 3 h
Experimental: Drug screening. E0771 (750 cells/well) and freshly isolated murine CD8+ T cells (6,000 cells/well) were plated in 384-well plates as described above. […] H5 (20 μM) and Hoechst 33342 (1 μM) was added for 1 h at 37° C., washed with PBS and imaged under ImageXpress™ XLS (Molecular Devices) using KRB (10% FBS) buffer as media. Fluorescent images (4 sites/well) were acquired under a 40× objective using 405 nm (Hoechst) and 488 nm (H5) excitation wavelengths and data was analysed with MetaXpress software using the Custom Module Editor. Briefly, nuclei were used as seeds to create a pseudo-cell area and granzyme B positive puncta were detected using a top-hat filter (pixel size: 10, circle shape) followed by an average filter (3×3 pixel).

[2] = biological target: T1, hGzmB (Homo sapiens, UniProt P10144); test: HPLC conversion/cleavage of probes by hGzmB; format: biochemical; conditions: for cleavage at 100 nM for 24 h: 100 nM enzyme
T1 sequence (P10144 21-247): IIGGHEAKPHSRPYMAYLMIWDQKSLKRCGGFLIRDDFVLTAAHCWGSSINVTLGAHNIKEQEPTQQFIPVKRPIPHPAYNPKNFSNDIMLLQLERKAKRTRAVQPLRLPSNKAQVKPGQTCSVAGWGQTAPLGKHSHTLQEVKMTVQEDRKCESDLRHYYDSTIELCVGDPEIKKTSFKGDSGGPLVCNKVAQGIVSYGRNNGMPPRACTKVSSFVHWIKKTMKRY
Text: FIG. 5. HPLC traces of the probe H5 before and after reaction with hGzmB. HPLC chromatogram and mass spectrometry analysis of the probe H5 before and after reaction with increasing concentrations of hGzmB. Mcalc. (intact probe): 1246.6 [M+Na^+]; Mcalc. (cleaved probe): 747.2 [M+H^+].

[3] = test system: mKate-E0771 cancer cells; format: cell-based, mouse
Experimental: FIG. 8. […] Cell viability was determined using a commercially available MTT kit (Invitrogen) with values normalized to untreated cells. Data presented as mean values±SEM (2 independent experiments with 3 replicates for each).

[4] = biological target: T2, human recombinant granzyme B (Homo sapiens, UniProt P10144); test: HPLC/MS analysis of probe cleavage by granzyme B in urine; format: biochemical; conditions: after 1 h with granzyme B present
T2 sequence (P10144 21-247): as above
Experimental: (§1) Following incubation, the samples were diluted with MeOH, centrifuged and the supernatant injected into the HPLC/MS. Samples were eluted with 0.1% HCOOH in H2O (A) and 0.1% HCOOH in MBCN (B), with a gradient of 0 to 100% B over 5 minutes and an additional isocratic period of 3 minutes with a flow rate of 1.5 mL min^−1. Reactions were monitored from 220-700 nm and percentage cleaved was determined by comparing peak area of the cleaved probe against the intact probe on MassLynx software.

[5] = format: in vitro ADME, human
Experimental: as §1, with “Probe (H5 or R7) (25 μM) was incubated with human recombinant granzyme B (15 nM) in Granzyme B buffer for 1.5 h at 37° C. Following” for “Following”
We first sought to address the stability of probe H5 and R7 and in urine from 3 healthy donors to ensure no cross-reactivity occurred with any other biomolecules that may be present in all urine samples. To do this we monitored the fluorescence response of probe H5 and R7 in urine with and without spiked granzyme B (15 nM) and also assessed stability via HPLC analysis. […] (FIG. 11). It should also be noted that HPLC-MS confirmed the cleavage of probe H5 and R7 after the aspartic acid residue (the natural granzyme B cleavage site).

[6] = test system: recombinant hGzmB (20 nM); test: buffer-1 (50 mM Tris, 100 mM NaCl, pH 7.4); conditions: human, 37° C., up to 2 h
[7] = test system: hGzmB (100 nM); conditions: human, up to 24 h
[8] = urine from 3 healthy donors, without granzyme B; conditions: human, 37° C., up to 3 hours
[9] = test system: human recombinant granzyme B (15 nM); test: urine from 3 healthy donors with spiked granzyme B (15 nM); conditions: 37° C., up to 3 hours
[10] = biological target: T1, hGzmB; test: Fluorescence assays with recombinant hGzmB; format: biochemical
Experimental: Fluorescence assays with recombinant enzymes. Fluorescence-based assays with enzymes were performed in buffer-1 (50 mM Tris, 100 mM NaCl, pH 7.4) for GzmB, pro-GzmB, GzmA and HNE, or buffer-2 (25 mM HEPES, 0.1% CHAPS, 10 mM DTT, pH 7.5) for caspases and other enzymes. Probes (25 μM) were added to enzymes (20 nM or at the indicated concentrations) in 384-well plates and their fluorescence emission was recorded at 450 nm (for AMC) or 510 nm (for BODIPY) at 37° C. using a Synergy H1 Hybrid reader (BioTek). In experiments with Ac-IEPD-CHO (50 μM), the inhibitor was pre-incubated for 1 h with GzmB before addition of any probe.

[11] = test system: GzmB; conditions: cited from earlier work
[12] = biological target: T2, human recombinant granzyme B; test: Reactivity of NIR probes with granzyme B; format: biochemical
Experimental: With the probes in hand (Table 4) they were tested for their reactivity with human recombinant granzyme B to identify a lead candidate. Each probe was tested at a concentration of 25 μM against 20 nM granzyme B and fluorescence was recorded over 2 hours at 37° C. (λex: 620 nm, λem: 660 nm).

[13] = test system: E0771 cells alone or in co-culture with CD8+ T cells; test: AZD5363 follow-up: cell death and H5 staining by flow cytometry; format: cell-based, mouse
Experimental: FIG. 10. […] Co-cultures were stained with probe H5 (5 μM) and AF647-Annexin V (10 nM). Excitation/emission wavelengths: 488 nm/525 nm (for probe H5), 633/670 nm (for AF647-Annexin V). c) Percentages of E0771 cells that were double-stained with probe H5 and AF647-Annexin V under the experimental conditions described in a). Data presented as mean values±SEM (n=3).

C/C(=C\c1csc(C)n1)[C@@H]1C[C@@H]2O[C@]2(C)CCC[C@H](C)[C@H](O)[C@@H](C)C(=O)C(C)(C)[C@@H](O)CC(=O)O1 [C13, Epothilone B]
H5 fluorescence signal compared to IL-2 only controls [1]: Increased fluorescence signals

CCC(C)[C@H](NC(=O)CCC1=[N+]2C(=Cc3c(C)cc(C)n3[B-]2(F)F)C=C1)C(=O)N[C@@H](CCC(=O)O)C(=O)N1CCC[C@H]1C(=O)N[C@@H](CC(=O)O)C(=O)N[C@@H](C)C(=O)N[C@@H](CC(C)C)C(=O)NCCNC(=O)c1ccc(/N=N/c2ccc(N(C)C)cc2)cc1 (stereo partly drawn) [H5] ({BODIPY(FL)}-[Ile(3ξ)]EPDAL-{Ethylenediamine-X1})
HPLC conversion (20 nM hGzmB, 2 h) [2]: 100% | cytotoxicity (cell viability) [3]: not cytotoxic | conversion to the cleaved probe in urine [4]: up to 84% | probe cleaved in the urine sample alone (HPLC) [5]: less than 1%

IEPDRL
cleaved bond [6]: Asp-Arg

IEPDWR
cleaved bond [6]: Asp-Trp

Ac-IEPD-{AMC} [listing 1 of 2 here]
cleaved bond [7]: D-AMC | not cleaved [6]: <1% cleavage at 20 nM enzyme for 2 h

CC[C@H](C)[C@H](NC(=O)CCC1=[N+]2C(=Cc3c(C)cc(C)n3[B-]2(F)F)C=C1)C(=O)N[C@@H](CCC(=O)O)C(=O)N1CCC[C@H]1C(=O)N[C@@H](CC(=O)O)C(=O)NCCNC(=O)c1ccc(/N=N/c2ccc(N(C)C)cc2)cc1 [T1] ({BODIPY(FL)}-IEPD-{Ethylenediamine-X1})
cleavage at 20 nM enzyme for 2 h [2]: < 5% | cleavage at 100 nM for 24 h [2]: 15%

C#CC[C@H](c1nc2cc(Cl)ccc2c(=O)n1Nc1ccccc1)N(CCCN)C(=O)c1cccc(Cl)c1F [C12, ARQ621]
H5 fluorescence signal compared to IL-2 only controls [1]: Increased fluorescence signals

IEPDSL
cleaved bond [6]: Asp-Ser

IEPD-Dabcyl ({BODIPY(FL)}-IEPD-{Ethylenediamine-X1}; SMILES CC[C@H](C)[C@H](NC(=O)CCC1=[N+]2C(=Cc3c(C)cc(C)n3[B-]2(F)F)C=C1)C(=O)N[C@@H](CCC(=O)O)C(=O)N1CCC[C@H]1C(=O)N[C@@H](CC(=O)O)C(=O)NCCNC(=O)c1ccc(/N=N/c2ccc(N(C)C)cc2)cc1)
not cleaved [6]: <5% cleavage at 20 nM enzyme for 2 h

CC(=O)O[C@@]12CO[C@@H]1C[C@H](O)[C@@]1(C)C(=O)[C@H](O)C3=C(C)[C@@H](OC(=O)[C@H](O)[C@@H](NC(=O)OC(C)(C)C)c4ccccc4)C[C@@](O)([C@@H](OC(=O)c4ccccc4)[C@H]21)C3(C)C [C11, Docetaxel]
H5 fluorescence signal compared to IL-2 only controls [1]: Increased fluorescence signals

Ile-Glu-Pro-Asp-Ala-Leu [R7]
not cleaved [8]: less than 1% of both probes had been cleaved whilst in the urine sample alone | cleaved bond [6]: aspartic acid-Ala | cleaved bond [9]: aspartic acid-Ala

Ac-IEPD-{AMC} [listing 2 of 2 here]
LoD ([10]; limit of detection of hGzmB): 25 nM | cleavage at 20 nM enzyme for 2 h [2]: < 1% | cleavage at 100 nM for 24 h [2]: 10% | Km [11]: 160 µM | kcat [11]: 0.5 s⁻¹

Ac-IEPD-aldehyde
effect of inhibitor on fluorescence response of H5 to hGzmB ([10]; Ac-IEPD-CHO 50 μM pre-incubated 1 h with GzmB): drastically reduced the fluorescence response of H5 | effect of inhibitor pre-incubation on fold change of R7 ([12]; granzyme B pre-incubated with inhibitor): fold change decreased

IEPDSG
cleaved bond [6]: Asp-Ser

H5m (IEFDAL; also: FRET labels, positions not given here)
HPLC conversion (20 nM hGzmB, 2 h) [2]: 70%

IEFDAL
cleaved bond [6]: Asp-Ala

CCC(C)[C@H](NC(=O)CCCCCN1/C(=C/C=C/C=C/C2=[N+](C)c3ccc(S(=O)(=O)[O-])cc3C2(C)C)C(C)(C)c2cc(S(=O)(=O)[O-])ccc21)C(=O)N[C@@H](CCC(=O)O)C(=O)N1CCC[C@H]1C(=O)N[C@@H](CC(=O)O)C(=O)N[C@@H](C)C(=O)N[C@@H](CC(C)C)C(=O)NCCOCCOCCOCCOCCNC(=O)C1CCN(S(=O)(=O)c2ccccc2-c2c3ccc(=[N+]4CCc5ccccc54)cc-3oc3cc(N4CCc5ccccc54)ccc23)CC1 (stereo partly drawn) [R7]
conversion from intact to cleaved (HPLC-MS) ([12]; within 2 hours): 100% | conversion to the cleaved probe in urine [4]: ≤ 99% | probe cleaved in the urine sample alone (HPLC) [5]: less than 1%

{BODIPY(FL)}-[Ile(3ξ)]EPDAL-{Ethylenediamine-X1} (SMILES CCC(C)[C@H](NC(=O)CCC1=[N+]2C(=Cc3c(C)cc(C)n3[B-]2(F)F)C=C1)C(=O)N[C@@H](CCC(=O)O)C(=O)N1CCC[C@H]1C(=O)N[C@@H](CC(=O)O)C(=O)N[C@@H](C)C(=O)N[C@@H](CC(C)C)C(=O)NCCNC(=O)c1ccc(/N=N/c2ccc(N(C)C)cc2)cc1) [H5]
not cleaved [8]: less than 1% of both probes had been cleaved whilst in the urine sample alone | cleaved bond [6]: Asp-Ala | cleaved bond [9]: aspartic acid-Ala

CC(=O)N[C@@H](CSC(=O)[C@]1([C@@H](O)C(C)C)NC(=O)[C@H](C)[C@@H]1O)C(=O)O [C30, Lactacystin]
H5 fluorescence signal compared to IL-2 only controls [1]: Increased fluorescence signals

CO[C@@]12[C@H](COC(N)=O)C3=C(C(=O)C(C)=C(N)C3=O)N1C[C@@H]1N[C@@H]12 [C18, Mitomycin C]
H5 fluorescence signal compared to IL-2 only controls [1]: Increased fluorescence signals

IEPDAG
cleaved bond [6]: Asp-Ala

IEPDWL
cleaved bond [6]: Asp-Trp

AZD5363 [C5]
H5 fluorescence signal compared to IL-2 only controls [1]: Increased fluorescence signals | H5 fluorescence signal compared to IL-2 only controls ([1]; listed as AZD5363): brightest H5 fluorescence staining | cancer cell death and H5 staining ([13]; AZD5363 on its own, E0771 cells): did not induce significant cancer cell death nor cause H5 staining | cancer cell death and H5 fluorescence emission ([13]; combination with 100 U mL^−1 IL-2, CD8+ T cell-E0771 co-cultures): caused significant cancer cell death and H5 fluorescence emission
